According to US5696112A, “Fused heterocyclic azepines as vasopressin antagonists” (American Cyanamid Company, priority 1995, dated 1997):

How the values were obtained:
[1] = target: T1, Rat Kidney Medullary V2 Receptors (vasopressin V2) (Rattus norvegicus, UniProt Q00788); assay: Binding Assay to Rat Kidney Medullary V2 Receptors; conditions: rat kidney medullary V2, [3H]Arg8-vasopressin
T1 construct: Medullary tissues from rat kidneys are dissected out; from tissue; host or cells: rat kidney medulla membranes
Protocol: Binding Assay to Rat Kidney Medullary V2 Receptors
Medullary tissues from rat kidneys are dissected out, cut into small pieces and let soak in a […] sodium chloride solution containing 1.0 mM EDTA with many changes of the liquid phase, until the solution is clear of blood. The tissue is homogenized in a 0.25M sucrose solution containing 1.0 mM EDTA and 0.1 mM PMSF using a Potter-Elvehjem homogenizer with a teflon pestle. The homogenate is filtered through several layers (4 layers) of cheese cloth. The filtrate is rehomogenized using a dounce homogenizer, with a tight fitting pestle. The final homogenate is contrifuged at 1500×g for 15 min. The nuclear pellet is discarded and the supernatant fluid recentrifuged at 40,000×g for 30 min. The resulting pellet formed contains a dark inner part with the exterior, slightly pink. The pink outer part is suspended in a small amount of 50.0 mMTris.HCl buffer, pH 7.4. The protein content is determined by the Lowry's method (Lowry et al, J. Biol. Chem., 1953). The membrane suspension is stored at -70° C., in 50.0 mMTris.HCl, containing 0.2% inactivated BSA and 0.1 mM PMSF in aliquots of 1.0 ml containing 10.0 mg protein per ml of suspension until use in subsequent binding experiments.
For binding experiments, the following is added in μl volume to wells of a 96 well format of a microtiter plate: 100.0 μl of 100.0 mM Tris.HCl buffer containing 0.2% heat inactivated BSA, 10.0 mM MgCl2 and a mixture of protease inhibitors: leupeptin, 1.0 mg %; aprotinin, 1.0 mg %; 1,10-phenanthroline, 2.0 mg %; trypsin inhibitor, 10.0 mg % and 0.1 mM PMSF, 20.0 μl of [^3 H]Arginine^8, vasopressin (S.A. 75.0 Ci/mmole) at 0.8 nM and the reaction initiated by the addition of 80.0 μl of tissue membranes (200.0 μg tissue protein). The plates are left undisturbed on the bench top for 120 min. to reach equilibrium. Non-specific binding is assessed in the presence of 1.0 μM of unlabeled ligand, added in 20 μl volume. For test compounds, these are solubilized in 50% dimethylsulfoxide (DMSO) and added in 20.0 μl volume to a final incubation volume of 200 μl. Upon completion of binding, the content of each well is filtered off, using a Brandel® cell Harvester (Gaithersburg, Md.). The radioactivity trapped on the filter disk by the ligand-receptor complex is assessed by liquid scintillation counting in a Packard LS Counter, with an efficiency of 65% for tritium. The data are analyzed for IC50 values by the LUNDON-2 program for competition (LUNDON SOFTWARE, OH).

[2] = target: T2, Rat Hepatic V1 Receptors (vasopressin V1) (Rattus norvegicus, UniProt P30560); assay: Binding Assay to Rat Hepatic V1 Receptors; conditions: rat hepatic V1, [3H]vasopressin
T2 construct: Rat liver plasma membranes expressing the vasopressin V1 receptor subtypes are isolated by sucrose density gradient; from tissue; host or cells: rat liver plasma membranes
Protocol: Binding Assay to Rat Hepatic V1 Receptors
Rat liver plasma membranes expressing the vasopressin V1 receptor subtypes are isolated by sucrose density gradient according to the method described by Lesko et al., (1973). These membranes are quickly suspended in 50.0 mMTris.HCl buffer, pH 7.4, containing 0.2% bovine serum albumin (BSA) and 0.1 mM phenylmethylsulfonylfluoride (PMSF) and kept frozen at -70° C. until used in subsequent binding experiments. For binding experiments, the following is added to the wells of a ninety-six well format microtiter plate: 100 μl of 100.0 mM Tris.HCl buffer containing 10.0 mM MgCl2, 0.2% heat inactivated BSA and a mixture of protease inhibitors: leupeptin, 1.0 mg %; aprotinin, 1.0 mg %, 1,10-phenanthroline,2.0 mg %; trypsin inhibitor, 10.0 mg % and 0.1 mM PMSF, 20.0 μl of [phenylalanyl-3,4,5-^3 H]vasopressin (S.A. 45.1 Ci/mmole) at 0.8 nM, and the reaction initiated by the addition of 80 μl of tissue membranes containing 20 μg of tissue protein. The plates are kept undisturbed on the bench top at room temperature for 120 min. to reach equilibrium. Nonspecific samples are assayed in the presence of 0.1 μM of the unlabeled antagonist phenylalanylvasopressin, added in 20.0 μl volume to a final incubation volume of 200 μl. Upon completion of binding, the content of each well is filtered off, using a Brandel® cell Harvester (Gaithersburg, Md.). The radioactivity trapped on the filter disk by the ligand-receptor complex is assessed by liquid scintillation counting in a Packard LS Counter, with an efficiency of 65% for tritium. The data are analyzed for IC50 values by the LUNDON-2 program for competition (LUNDON SOFTWARE, OH).

Vasopressin V2 = Vasopressin V2 Antagonist Activity in Conscious Hydrated Rats; format: in vivo, rat; conditions: AVP 0.4 μg/kg i.p.
Protocol: Vasopressin V2 Antagonist Activity in conscious Hydrated Rats Conscious hydrated rats are treated with compounds under study from 0.1 to 100 mg/kg orally or vehicle. Two to four rats are used for each compound. One hour later, arginine vasopressin (AVP, antidiuretic hormone, ADH) dissolved in peanut oil is administered at 0.4 μg/kg intraperitoneally. Two rats in each test would not receive arginine vasopressin but only the vehicle (peanut oil) to serve as water-loading control. Twenty minutes later each rat is given 30 mL/kg of deionized water orally by gavage and is placed individually in a metabolic cage equipped with a funnel and a graduated glass cylinder to collect urine for four hours. Urine volume is measured and osmolality analyzed by use of a Fiske One-Ten osmometer (Fiske Assoc., Norwood, Mass. USA). Urinary sodium, potassium, and chloride are analyzed by use of ion-specific electrodes in a Beckman E3 (Electrolyte 3) Analyzer. In the following results, […] and […] osmolality relative to AVP-control indicates activity.

oxytocin receptors = target: T3, oxytocin receptors (Rattus norvegicus, UniProt P70536); assay: Oxytocin Receptor Binding; design: species or system Sprague-Dawley rats
T3 construct: The uteri are dissected out, cleaned of fat and connective tissues; from tissue; host or cells: uterus membranes of DES-treated female Sprague-Dawley rats
T3 sequence (P70536 1-388): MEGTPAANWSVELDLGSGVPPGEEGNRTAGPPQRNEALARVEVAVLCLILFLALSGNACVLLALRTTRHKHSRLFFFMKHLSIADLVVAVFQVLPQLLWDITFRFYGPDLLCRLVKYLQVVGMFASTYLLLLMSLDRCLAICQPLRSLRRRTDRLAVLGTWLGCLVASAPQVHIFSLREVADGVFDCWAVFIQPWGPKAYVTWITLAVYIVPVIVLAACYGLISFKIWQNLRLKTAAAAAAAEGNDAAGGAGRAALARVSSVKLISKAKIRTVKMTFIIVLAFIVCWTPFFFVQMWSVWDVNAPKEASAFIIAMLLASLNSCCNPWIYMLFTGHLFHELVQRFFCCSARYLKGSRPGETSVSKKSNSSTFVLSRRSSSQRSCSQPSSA
Protocol: Oxytocin Receptor Binding
Female Sprague-Dawley rats weighing approximately 200-250 g are injected intramuscularly (i.m.) with 0.3 mg/kg of body weight of diethylstilbestrol (DES). The rats are sacrificed 18 hours later under pentobarbital anesthesia. The uteri are dissected out, cleaned of fat and connective tissues and rinsed in 50 ml of normal saline. The tissue pooled from six rats is homogenized in 50 ml of 0.01 mMTris.HCl, containing 0.5 mM dithiothreitol and 1.0 mM EDTA, adjusted to pH 7.4, using a polytron at setting 6 with three passes of 10 sec each. The homogenate is passed through two (2) layers of cheesecloth and the filtrate centrifuged at 1000×g for 10 min. The clear supernatant is removed and recentrifuged at 165,000×g for 30 min. The resulting pellet containing the oxytocin receptors is resuspended in 50.0 mM Tris.HCl containing 5.0 mM MgCl2 at pH 7.4, to give a protein concentration of 2.5 mg/ml of tissue suspension. This preparation is used in subsequent binding assays with [^3 H]Oxytocin.
Binding of 3,5-[^3 H]Oxytocin ([^3 H]OT) to its receptors is done in microtiter plates using [^3 H]OT, at various concentrations, in an assay buffer of 50.0 mM Tris.HCl, pH 7.4 and containing 5.0 mM MgCl2, and a mixture of protease inhibitors: BSA, 0.1 mg; aprotinin, 1.0 mg; 1,10-phenanthroline, 2.0 mg; […], 10.0 mg; and PMSF, 0.3 mg per 100 ml of buffer solution. Nonspecific binding is determined in the presence of 1.0 uM unlabeled OT. The binding reaction is terminated after 60 min., at 22° C., by rapid filtration through glass fiber filters using a Brandel® cell harvester (Biomedical Research and Development Laboratories, Inc., Gaithersburg, Md.). Competition experiments are conducted at equilibrium using 1.0 nM [^3 H]OT and varying the concentration of the displacing agents. The concentrations of agent displacing 50% of [^3 H]OT at its sites (IC50) are calculated by a computer assisted LUNDON-2 program (LUNDON SOFTWARE INC., Ohio, USA).

T1 sequence (Q00788 whole entry): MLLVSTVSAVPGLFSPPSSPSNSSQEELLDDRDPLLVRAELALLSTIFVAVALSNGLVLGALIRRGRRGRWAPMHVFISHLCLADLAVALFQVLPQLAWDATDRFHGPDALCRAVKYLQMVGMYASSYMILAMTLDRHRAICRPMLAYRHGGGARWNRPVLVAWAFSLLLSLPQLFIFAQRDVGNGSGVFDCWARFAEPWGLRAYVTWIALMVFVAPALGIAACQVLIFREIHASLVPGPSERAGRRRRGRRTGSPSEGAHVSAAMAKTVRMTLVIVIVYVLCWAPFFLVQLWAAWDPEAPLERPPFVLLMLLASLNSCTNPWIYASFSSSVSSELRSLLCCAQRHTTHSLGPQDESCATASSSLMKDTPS
T2 sequence (P30560 whole entry): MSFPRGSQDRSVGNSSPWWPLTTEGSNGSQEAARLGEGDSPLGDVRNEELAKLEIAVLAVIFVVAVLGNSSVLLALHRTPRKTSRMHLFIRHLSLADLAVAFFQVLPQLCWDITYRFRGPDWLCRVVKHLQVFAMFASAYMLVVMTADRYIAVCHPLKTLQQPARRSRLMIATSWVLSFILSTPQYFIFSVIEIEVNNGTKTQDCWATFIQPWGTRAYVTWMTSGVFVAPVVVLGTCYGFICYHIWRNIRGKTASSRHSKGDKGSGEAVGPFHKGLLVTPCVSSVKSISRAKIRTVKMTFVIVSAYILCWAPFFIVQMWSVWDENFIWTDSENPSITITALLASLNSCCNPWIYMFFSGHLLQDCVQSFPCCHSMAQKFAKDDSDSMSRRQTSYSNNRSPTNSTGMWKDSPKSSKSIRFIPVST

| IC50 [1] [µM] | IC50 [2] [µM] | SMILES | other results |
| --- | --- | --- | --- |
| 21.4 |  | CC(C)(C)c1ccc(C(=O)Nc2ccc(C(=O)N3CCCCc4sccc43)cc2)cc1 [Example 5, N-[4-[(5,6,7,8-Tetrahydro-4H-thieno[3,2-b]azepin-4-yl)carbonyl]phenyl]4-tert-butylbenzamide] |  |
| 0.036 | 0.26 | O=C(Cc1ccccc1)Nc1ccc(C(=O)N2CCCCc3sccc32)cc1 [Example 12, N-[4-[(5,6,7,8-tetrahydro-4H-thieno[3,2-b]azepin-4-yl)carbonyl]phenyl]benzeneacetamide] |  |
| 1.8 | 0.4 | O=C(Nc1ccc(C(=O)N2CCCCc3sccc32)cc1)c1ccco1 [Example 4, N-[4-[(5,6,7,8-Tetrahydro-4H-thieno[3,2-b]azepin-4-yl)carbonyl]phenyl]2-furanecarboxamide] |  |
| 0.44 | 1.65 | O=C(Nc1ccc(C(=O)N2CCCCc3sccc32)cc1)c1ccc(Cl)c(Cl)c1 [Example 1, N-[4-[(5,6,7,8-Tetrahydro-4H-thieno[3,2-b]azepin-4-yl)carbonyl]phenyl]-3,4-dichlorobenzamide] |  |
| 0.06 | 0.28 | Cc1ccc(C(=O)Nc2ccc(C(=O)N3CCCCc4sccc43)cc2)c(C)c1 [Example 11, N-[4-[(5,6,7,8-Tetrahydro-4H-thieno[3,2-b]azepin-4-yl)carbonyl]phenyl]2,4-dimethylbenzamide] | Osmolality (Vasopressin V2; 30 mg/kg P.O.): 1420 mOsm/kg; Urine Volume (Vasopressin V2; 30 mg/kg P.O.): 5 ml/4 hours |
| 5.5 | 1.3 | O=C(Nc1ccc(C(=O)N2CCCCc3sccc32)cc1)c1coc2c1C(=O)CCC2 [Example 179] |  |
| 0.37 | 8 | O=C(Nc1ccc(C(=O)N2CCCCc3sccc32)cc1)c1ccc2[nH]ccc2c1 [Example 180] |  |
| 0.052 | 0.23 | Cc1cccc(C(=O)Nc2ccc(C(=O)N3CCCCc4sccc43)cc2)c1C [Example 10, N-[4-[(5,6,7,8-Tetrahydro-4H-thieno[3,2-b]azepin-4-yl)carbonyl]phenyl]2,3-dimethylbenzamide] |  |
|  |  | CCCCOc1ccc(C(=O)N2CCCCc3sccc32)cc1 [Example 233, 4-[4-(n-Butyloxy)benzoyl]-5,6,7,8-tetrahydro-4H-thieno[3,2-b]azepine] | IC50 (oxytocin receptors; 1.0 nM [3H]oxytocin): 0.95 µM; inhibition at 10 µM (oxytocin receptors; 10 μM): 93% |
| 0.12 | 0.2 | Cc1ccc(C)c(C(=O)Nc2ccc(C(=O)N3CCCCc4sccc43)cc2)c1 [Example 8, N-[4-[(5,6,7,8-Tetrahydro-4H-thieno[3,2-b]azepin-4-yl)carbonyl]phenyl]2,5-dimethylbenzamide] |  |
| 3.4 | 50 | CCCCc1ccc(C(=O)Nc2ccc(C(=O)N3CCCCc4sccc43)cc2)cc1 [Example 6, N-[4-[(5,6,7,8-Tetrahydro-4H-thieno[3,2-b]azepin-4-yl)carbonyl]phenyl]4-(n-butyl)benzamide] |  |
| 0.138 | 0.059 | Cc1ccsc1C(=O)Nc1ccc(C(=O)N2CCCCc3sccc32)cc1 [Example 7, N-[4-[(5,6,7,8-Tetrahydro-4H-thieno[3,2-b]azepin-4-yl)carbonyl]phenyl]3-methyl-2-thiophenecarboxamide] | Urine Volume (Vasopressin V2; 100 mg/kg P.O.): 6.2 ml/4 hours |
| 0.023 | 0.077 | Cc1ccccc1C(=O)Nc1ccc(C(=O)N2CCCCc3sccc32)cc1 [Example 3, N-[4-[(5,6,7,8-Tetrahydro-4H-thieno[3,2-b]azepin-4-yl)carbonyl]phenyl]-2-methylbenzamide] | Osmolality (Vasopressin V2; 100 mg/kg P.O.): 1081 mOsm/kg; Urine Volume (Vasopressin V2; 100 mg/kg P.O.): 10 ml/4 hours |
